In ChEMBL document CHEMBL1152881, “A heterocyclic molecule with significant activity against dengue virus” (Bioorg Med Chem Lett, 2009):
In brackets after ≈: the same amount, converted by molar mass. Activity calls are given as the source filed them. The rule behind the calls is not given here.

How the values were obtained:
[1] = Cytotoxicity against african green monkey Vero cells; format: cell-based; conditions: chlorocebus sabaeus
dengue virus type 2 [2] = assay: Antiviral activity against Dengue virus type 2 New Guinea C infected in african green monkey Vero cells by neutral red uptake assay; format: functional, organism-based
dengue virus type 2 [3] = assay: Antiviral activity against Dengue virus type 2 New Guinea C infected in african green monkey Vero cells assessed as inhibition of virus-induced cytopathic effect; format: functional, organism-based
[4] = (§1) Therapeutic index, ratio of CC50 for african green monkey Vero cells to EC50 for Dengue virus type 2; format: cell-based; conditions: read-out: TI
Yellow fever virus = assay: Antiviral activity against Yellow fever virus 17D by viral yield reduction assay; format: functional, organism-based
[5] = as §1; format: cell-based; conditions: read-out: TI; remark: listed apart in the source
[6] = as §1; format: cell-based; conditions: read-out: TI; remark: listed apart in the source
dengue virus type 2 [7] = assay: Antiviral activity against Dengue virus type 2 New Guinea C infected in african green monkey Vero cells assessed as inhibition of virus-induced cytopathic effect by viral yield reduction assay; format: functional

Q: What does the source list for `O=C(O)c1cnc2c(c1O)c(=O)n(Cc1ccccc1)c(=O)n2Cc1ccccc1`?
A: CC50 [1]: > 100 µg/mL; EC50 (dengue virus type 2 [2]): 6.3 µg/mL (≈ 15.6 µM); EC50 (dengue virus type 2 [3]): 5.7 µg/mL (≈ 14.1 µM); selectivity ratio [4]: > 16; Activity (Yellow fever virus): Active; selectivity ratio [5]: > 26; selectivity ratio [6]: > 18; CC50 (dengue virus type 2 [7]): > 100 µg/mL; EC90 (dengue virus type 2 [7]): 3.8 µg/mL (≈ 9.42 µM)
